Laboratory results reported in ChEMBL document CHEMBL4251597, “Discovery and evolution of aloperine derivatives as a new family of HCV inhibitors with novel mechanism” (Eur J Med Chem, 2018).
The source made the active and inactive calls. The calls are words filed in the database; no cut-off is given here.

Experiments:
[1] = Cytotoxicity against human Huh7.5 cells after 72 hrs by MTT assay; type: cell-based
Hepatitis C virus [2] = test: Antiviral activity against HCV J6/JFH/JC-1 infected in human Huh7.5 cells assessed as inhibition of viral RNA replication after 72 hrs by qRT-PCR method; type: functional, organism-based, Hepacivirus hominis; conditions: J6/JFH/JC-1, Huh7.5, 72 h
[3] = Selectivity index, ratio of CC50 for human Huh7.5 cells to EC50 for HCV J6/JFH/JC-1; type: toxicity; conditions: read-out: Ratio CC50/EC50
Hepatitis C virus [4] = test: Antiviral activity against HCV infected in human GS4.3 cells assessed as inhibition of viral core protein levels at 0.15 uM treated with fresh media containing compound every 2 days measured after 6 days by Western blot method; type: functional, organism-based; conditions: Hepacivirus hominis
Hepatitis C virus [5] = test: Antiviral activity against HCV infected in human GS4.3 cells assessed as inhibition of NS3/4A levels at 0.15 uM treated with fresh media containing compound every 2 days measured after 6 days by Western blot method; type: functional, organism-based; conditions: Hepacivirus hominis
[6] = AUC (0 to t) in mouse at 25 mg/kg, po after 0.25 to 6 hrs; type: ADME, organism-based; parameters: time upper 6 hr, time lower 0.25 hr, dose 25 mg/kg, route oral; conditions: in vivo
[7] = Half life in mouse at 25 mg/kg, po after 0.25 to 6 hrs; type: ADME, organism-based; conditions: in vivo
[8] = Cmax in mouse at 25 mg/kg, po after 0.25 to 6 hrs; type: ADME, organism-based; parameters: dose 25 mg/kg, route oral; conditions: in vivo
[9] = Tmax in mouse at 25 mg/kg, po after 0.25 to 6 hrs; type: ADME, organism-based; conditions: in vivo
[10] = MRT in mouse at 25 mg/kg, po after 0.25 to 6 hrs; type: ADME, organism-based; conditions: in vivo
Hepatitis C virus [11] = test: Antiviral activity against HCV J6/JFH/JC-1 infected in human Huh7.5 cells assessed as inhibition of NS3/4A D168V mutant levels at 0.01 to 1 uM treated with fresh media containing compound every 2 days by Western blot method; type: functional, organism-based; conditions: Hepacivirus hominis
Hepatitis C virus [12] = test: Antiviral activity against HCV J6/JFH/JC-1 infected in human Huh7.5 cells harboring NS3/4A D168V mutant assessed as inhibition of viral core protein levels at 0.01 to 1 uM treated with fresh media containing compound every 2 days by Western blot method; type: functional, organism-based; conditions: Hepacivirus hominis
[13] = Acute toxicity in po dosed Kunming mouse measured for 7 days; type: organism-based; conditions: in vivo

Structure (SMILES)	CC50 at 72 h [1] [µM]	EC50 (Hepatitis C virus [2]) [µM]	selectivity ratio [3]	further results
Nc1ccc(S(=O)(=O)N2CCCC3=C[C@H]4C[C@H](CN5CCCC[C@H]45)[C@@H]32)cc1	288	10.7	26.9	
O=C(O)c1ccc(C(=O)N2CCCC3=C[C@H]4C[C@H](CN5CCCC[C@H]45)[C@@H]32)cc1	> 500	73.7	> 6.78	
O=C(O)c1ccccc1S(=O)(=O)N1CCCC2=C[C@H]3C[C@H](CN4CCCC[C@H]34)[C@@H]21	> 500	46.4	> 10.8	
COc1ccc(S(=O)(=O)N2CCCC3=C[C@H]4C[C@H](CN5CCCC[C@H]45)[C@@H]32)cc1OC	215	6.39	33.6	
O=S(=O)(c1ccc2c(c1)CCO2)N1CCCC2=C[C@H]3C[C@H](CN4CCCC[C@H]34)[C@@H]21	217	8.65	25.1	
COC(=O)c1ccc(C(=O)N2CCCC3=C[C@H]4C[C@H](CN5CCCC[C@H]45)[C@@H]32)cc1	271	11.6	23.4	
COC(=O)N[C@H](C(=O)N1CCC[C@H]1c1ncc(-c2ccc(-c3ccc(-c4cnc([C@@H]5CCCN5C(=O)[C@@H](NC(=O)OC)C(C)C)[nH]4)cc3)cc2)[nH]1)C(C)C				inhibition (Hepatitis C virus [4]): Active; inhibition (Hepatitis C virus [5]): Active
COC(=O)c1ccccc1S(=O)(=O)N1CCCC2=C[C@H]3C[C@H](CN4CCCC[C@H]34)[C@@H]21	269	8.2	32.8	
COc1ccc(Cl)cc1S(=O)(=O)N1CCCC2=C[C@H]3C[C@H](CN4CCCC[C@H]34)[C@@H]21	92.9	1.21	76.8	
COc1ccccc1CN1CCCC2=C[C@H]3C[C@H](CN4CCCC[C@H]34)[C@@H]21	69.3	6.78	10.2	
N#Cc1ccccc1CN1CCCC2=C[C@H]3C[C@H](CN4CCCC[C@H]34)[C@@H]21	18.8	1.95	9.64	
O=[N+]([O-])c1ccc(CN2CCCC3=C[C@H]4C[C@H](CN5CCCC[C@H]45)[C@@H]32)cc1	94.4	3.56	26.5	
COC(=O)c1ccc(S(=O)(=O)N2CCCC3=C[C@H]4C[C@H](CN5CCCC[C@H]45)[C@@H]32)cc1	283	80.6	3.51	
O=S(=O)(c1ccc2c(c1)OCCO2)N1CCCC2=C[C@H]3C[C@H](CN4CCCC[C@H]34)[C@@H]21	> 500	23.5	> 21.3	
N#Cc1ccccc1S(=O)(=O)N1CCCC2=C[C@H]3C[C@H](CN4CCCC[C@H]34)[C@@H]21	256	3.32	77.1	
O=S(=O)(c1ccncc1)N1CCCC2=C[C@H]3C[C@H](CN4CCCC[C@H]34)[C@@H]21	371	11.4	32.6	
CC(=O)Nc1ccc(S(=O)(=O)N2CCCC3=C[C@H]4C[C@H](CN5CCCC[C@H]45)[C@@H]32)cc1	309	54.7	5.64	
C1=C2CCCN[C@H]2[C@@H]2C[C@H]1[C@H]1CCCCN1C2	235	4.32	54.5	

Structure (SMILES)	CC50 at 72 h [1] [µM]	EC50 (Hepatitis C virus [2]) [µM]	selectivity ratio [3]	further results
O=C1c2ccccc2C(=O)N1CCS(=O)(=O)N1CCCC2=C[C@H]3C[C@H](CN4CCCC[C@H]34)[C@@H]21	> 500	68.6	> 7.29	
COc1ccc(S(=O)(=O)N2CCCC3=C[C@H]4C[C@H](CN5CCCC[C@H]45)[C@@H]32)cc1C	73.2	4.89	15	
O=S(=O)(c1cccc2nsnc12)N1CCCC2=C[C@H]3C[C@H](CN4CCCC[C@H]34)[C@@H]21	314	5.5	57.2	
O=S(=O)(c1cccc2cccnc12)N1CCCC2=C[C@H]3C[C@H](CN4CCCC[C@H]34)[C@@H]21	249	7.35	33.8	
N#Cc1ccc(S(=O)(=O)N2CCCC3=C[C@H]4C[C@H](CN5CCCC[C@H]45)[C@@H]32)cc1	265	3.4	78	AUC(0-t) [6]: 0.77 µM·h; half-life [7]: 1.97 h; Cmax [8]: 410 nM; Tmax [9]: 0.33 h; MRT [10]: 1.82 h
Cc1nc(N)sc1S(=O)(=O)N1CCCC2=C[C@H]3C[C@H](CN4CCCC[C@H]34)[C@@H]21	209	6.03	34.7	
COc1cc(C(=O)N2CCCC3=C[C@H]4C[C@H](CN5CCCC[C@H]45)[C@@H]32)cc(OC)c1OC	290	28.3	10.2	
CC(=O)Nc1nc(C)c(S(=O)(=O)N2CCCC3=C[C@H]4C[C@H](CN5CCCC[C@H]45)[C@@H]32)s1	182	12.4	14.7	
COc1ccc(S(=O)(=O)N2CCCC3=C[C@H]4C[C@H](CN5CCCC[C@H]45)[C@@H]32)cc1	102	6.01	16.9	
COc1ccc2c(O[C@@H]3C[C@H]4C(=O)N[C@]5(C(=O)NS(=O)(=O)C6CC6)C[C@H]5/C=C/CCCCN(C)C(=O)[C@@H]4C3)cc(-c3nc(C(C)C)cs3)nc2c1C				inhibition (Hepatitis C virus [11]): inactive; inhibition (Hepatitis C virus [12]): inactive
CS(=O)(=O)c1ccc(S(=O)(=O)N2CCCC3=C[C@H]4C[C@H](CN5CCCC[C@H]45)[C@@H]32)cc1	186	18.7	9.97	
CC(C)Oc1ccc(S(=O)(=O)N2CCCC3=C[C@H]4C[C@H](CN5CCCC[C@H]45)[C@@H]32)cc1	34.8	1.81	19.2	
C1=C2CCCN(Cc3ccncc3)[C@H]2[C@@H]2C[C@H]1[C@H]1CCCCN1C2	> 500	97.9	> 5.11	
CC(=O)c1ccc(S(=O)(=O)N2CCCC3=C[C@H]4C[C@H](CN5CCCC[C@H]45)[C@@H]32)cc1	234	5.57	42.1	
COc1ccc(C(=O)N2CCCC3=C[C@H]4C[C@H](CN5CCCC[C@H]45)[C@@H]32)cc1	> 500	62.5	> 8	
O=C(O)c1ccc(S(=O)(=O)N2CCCC3=C[C@H]4C[C@H](CN5CCCC[C@H]45)[C@@H]32)cc1	> 500	> 167		
COc1ccc(CN2CCCC3=C[C@H]4C[C@H](CN5CCCC[C@H]45)[C@@H]32)cc1	83.1	0.96	86.6	
NCCS(=O)(=O)N1CCCC2=C[C@H]3C[C@H](CN4CCCC[C@H]34)[C@@H]21	264	2.72	97.2	AUC(0-t) [6]: 7.78 µM·h; half-life [7]: 10.2 h; Cmax [8]: 1450 nM; LD50 at 168 h [13]: 750 mg/kg; Tmax [9]: 1.17 h; MRT [10]: 5.96 h
